For 3 compounds, Activity, IC50 and inhibition results are on record in ChEMBL document CHEMBL1150110, “Three novel protease inhibitors from a natural bloom of the cyanobacterium Microcystis aeruginosa” (J Nat Prod, 2002).

Assay [1] in a line: Inhibition of chymotrypsin at 45.5 ug/mL preincubated for 5 mins before addition of substrate measured after 30 mins.
Assay [2] is described as follows: Inhibition of trypsin preincubated for 5 mins before addition of substrate measured after 30 mins.
A short description of assay [3]: Inhibition of trypsin at 45.5 ug/mL preincubated for 5 mins before addition of substrate measured after 30 mins.

Converted amounts (≈) assume the structure as drawn. The source made the active and inactive calls. The rule behind the calls is not given here.

As usually defined, the IC50 is the concentration needed to halve the response being measured. Higher therefore signals a need for much substance. What is called inhibition is the percentage by which the read-out fell short of the control. High values mean a strong effect, low ones a weak effect.

Take `CC[C@H](C)[C@@H]1NC(=O)[C@H](Cc2ccc(O)cc2)N(C)C(=O)[C@H](Cc2ccccc2)N2C(=O)[C@H](CC[C@H]2O)NC(=O)[C@H](CCCNC(=N)N)NC(=O)[C@@H](NC(=O)[C@H](CC(=O)O)NC(C)=O)[C@@H](C)OC1=O` [MICROPEPTIN E1964]: the result in assay [1] was inactive. In assay [2], the IC50 was 4.2 µg/mL (≈ 4.35 µM). With `CC(C)C[C@@H](NC(=O)[C@@H](O)Cc1ccc(O)cc1)C(=O)N1[C@@H]2C[C@H](O)CC[C@@H]2C[C@H]1C(N)=O`, in assay [3], the inhibition came to 15%.

Consider `CCCC(=O)N[C@@H](CC(=O)O)C(=O)N[C@@H]1C(=O)N[C@@H](CCCNC(=N)N)C(=O)N[C@H]2CC[C@@H](O)N(C2=O)[C@@H](Cc2ccccc2)C(=O)N(C)[C@@H](Cc2ccc(O)cc2)C(=O)N[C@@H]([C@@H](C)CC)C(=O)O[C@@H]1C` [MICROPEPTIN EI992], for which, in assay [1], the result was inactive. The compound further displayed an IC50 in assay [2] of 3.8 µg/mL (≈ 3.83 µM).
